Assay results taken from PubChem BioAssay (NCI).
Values joined by “and” are separate entries in the source; they are usually repeats but may differ in a detail not shown here. Equal values may be shown once.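 Growth conditions: 96-well plates. Treatment: test compound, 48 hours, 5 concentrations. Analysis: linear interpolation between bracketing concentrations; unreached endpoints set to highest concentration. At the GI50, growth is halved. The concentration for full growth arrest is given as TGI.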 Where a SMILES comes first, the peptide text is derived from it. [ ]: non-standard residue; d: D form. The star is where a group is joined. Bn2Val = CC(C)[C@@H](C(=O)*)N(Cc1ccccc1)Cc1ccccc1; NH(3,4-diMeO-benzyl) = COc1ccc(CN*)cc1OC; NMeV = CN[C@H](C(=O)O)C(C)C; dNMeA = CN[C@H](C)C(=O)O

Experiments:
Test in all cases: inhibition of tumour cell growth, NCI panel, 48 h
NCI-H23 lung = tested on: NCI-H23 lung
SK-MEL-5 melanoma = tested on: SK-MEL-5 melanoma
RPMI-8226 leukemia = tested on: RPMI-8226 leukemia
TK-10 renal = tested on: TK-10 renal
NCI-H226 lung = tested on: NCI-H226 lung
SW-620 colon = tested on: SW-620 colon
ACHN renal = tested on: ACHN renal
SNB-19 CNS = tested on: SNB-19 CNS
HT29 colon = tested on: HT29 colon
UACC-62 melanoma = tested on: UACC-62 melanoma

Row | Compound | GI50 (NCI-H23 lung) | TGI (NCI-H23 lung) | GI50 (SK-MEL-5 melanoma) | TGI (SK-MEL-5 melanoma) | GI50 (RPMI-8226 leukemia) | TGI (RPMI-8226 leukemia) | GI50 (TK-10 renal) | TGI (TK-10 renal) | GI50 (NCI-H226 lung) | TGI (NCI-H226 lung) | GI50 (SW-620 colon) | TGI (SW-620 colon) | GI50 (ACHN renal) | TGI (ACHN renal) | GI50 (SNB-19 CNS) | TGI (SNB-19 CNS) | GI50 (HT29 colon) | TGI (HT29 colon) | GI50 (UACC-62 melanoma) | TGI (UACC-62 melanoma)
1 | O=C(/C=C(\[O-])c1ccccc1)CCCCCCC(=O)/C=C(\[O-])c1ccccc1.O=C(/C=C(\[O-])c1ccccc1)CCCCCCC(=O)/C=C(\[O-])c1ccccc1.O=C(/C=C(\[O-])c1ccccc1)CCCCCCC(=O)/C=C(\[O-])c1ccccc1.[La+3].[La+3] | > 50 µM | > 50 µM | > 50 µM | > 50 µM | > 50 µM | > 50 µM | > 50 µM | > 50 µM | > 50 µM | > 50 µM | > 50 µM | > 50 µM | > 50 µM | > 50 µM | > 50 µM | > 50 µM | > 50 µM | > 50 µM | > 50 µM | > 50 µM
2 | CC[n+]1ccc2c(c1)C(=O)c1nccc3c1c-2nc1ccccc13 | 0.28 µM | 2.64 µM | 1.35 µM | 5.54 µM | 6.49 µM | 21.7 µM | 4.77 µM | 16.8 µM | 1.13 µM | 5.51 µM | 1.1 µM | 11.5 µM | 1.13 µM | > 15.5 µM | 0.212 µM | 0.856 µM | 4.15 µM | 23.1 µM | 0.763 µM | 2.52 µM
3 | CCCNC(=O)OCc1c(COC(=O)NCCC)c(-c2ccc(Cl)c(Cl)c2)n2c1CCC2 |  | 26.5 µM |  | 19.5 µM |  | 24.4 µM |  | 18.9 µM |  | 7.53 µM |  | 20.6 µM |  | 6.28 µM |  | 39.1 µM |  | 19.2 µM |  | 13.3 µM
4 | CCOC(=O)c1c(N)n(-c2ccccc2)c(=S)n(-c2ccccc2)c1=O |  | > 100 µM |  | > 100 µM |  | > 100 µM |  | > 100 µM |  | > 100 µM |  | > 100 µM |  | > 100 µM |  | > 100 µM |  | > 100 µM |  | > 100 µM
5 | O=C1c2ccccc2C(=O)c2c1ccc1[nH]c(CCl)nc21 | 1.65 µM | 3.6 µM | 1.68 µM | 3.07 µM | 1.83 µM | 5.87 µM | 2.91 µM | 9.79 µM | 2.56 µM | 7.96 µM | 1.56 µM | 3.3 µM | 2.27 µM | 6.49 µM | 3.52 µM | 13.6 µM | 1.89 µM | 4.77 µM | 2.06 µM | 4.99 µM
6 | COc1ccc(CNC(=O)[C@@H](C)N(C)C(=O)[C@@H]2CCCN2C(=O)[C@H](C(C)C)N(C)C(=O)[C@@H](NC(=O)[C@H](C(C)C)N(Cc2ccccc2)Cc2ccccc2)C(C)C)cc1OC (Bn2Val-V[NMeV]P[dNMeA]-{NH(3,4-diMeO-benzyl)}) |  | 26.6 µM and 42.4 µM |  | 12.1 µM |  | 20 µM and 18.6 µM |  | 50 µM and 61.6 µM | 13.7 µM | 15.3 µM and 31.3 µM |  | 41.7 µM and 38 µM | 8.21 µM | 14.9 µM and 23.9 µM | > 100 µM | 23.9 µM and > 100 µM | 3.08 µM | 12.2 µM and 10.6 µM | 13.5 µM | 14 µM and 27.2 µM
7 | O=C(O)c1cc(S(=O)(=O)N=NC=C2c3ccccc3N(O)c3ccccc32)ccc1O |  | 53.3 µM |  | 32.3 µM |  | 76.6 µM |  | 50 µM |  | 72.4 µM |  | > 100 µM |  | 59.6 µM |  | > 100 µM |  | > 100 µM |  | 22 µM
8 | S=C1NCCN1C1=Nc2ccccc2CO1 | > 100 µM | > 100 µM | 41.7 µM | 99.4 µM | > 100 µM | > 100 µM | > 100 µM | > 100 µM | > 100 µM | > 100 µM | > 100 µM | > 100 µM | > 100 µM | > 100 µM | > 100 µM | > 100 µM | > 100 µM | > 100 µM | > 100 µM | > 100 µM
